According to ChEMBL document CHEMBL1147357, “Antihypertensive Activity of Corilagin and Chebulinic Acid, Tannins from Lumnitzera, racemosa” (1993):
Calls of active or inactive are those of the source. The rule behind the calls is not given here.

Key:
[1] = test system: Rattus norvegicus; assay: Antihypertensive activity in conscious SHR rat assessed as maximal change in tail arterial blood pressure at 50 mg/kg, iv measured at 10 mins interval relative to blood pressure obtained at preinjection; assay type: functional, Artery
[2] = test system: Rattus norvegicus; assay: Antihypertensive activity in iv dosed conscious SHR rat assessed as maximal change in tail arterial blood pressure measured at 10 mins interval by dose-response curve analysis; assay type: functional; conditions: Artery
[3] = test system: Rattus norvegicus; assay: Antihypertensive activity in conscious SHR rat assessed as maximal change in tail arterial blood pressure at 20 mg/kg, iv measured at 10 mins interval relative to blood pressure obtained at preinjection; assay type: functional, Artery
[4] = test system: Rattus norvegicus; assay: Antihypertensive activity in conscious SHR rat assessed as lowering of tail arterial mean blood pressure at 5 mg/kg during 10 to 130 mins by indirect tail-cuff method; assay type: functional, organism-based; set-up: dose 5 mg/kg; conditions: Artery
[5] = test system: Rattus norvegicus; assay: Antihypertensive activity in iv dosed conscious normotensive WKY rat assessed as maximal change in tail arterial blood pressure measured at 10 mins interval by dose-response curve analysis; assay type: functional; conditions: Artery
[6] = test system: Rattus norvegicus; assay: Induction of hypotensive effect in conscious normotensive WKY rat; assay type: functional, organism-based
[7] = test system: Rattus norvegicus; assay: Antihypertensive activity in conscious SHR rat assessed as maximal change in tail arterial blood pressure at 10 mg/kg, iv measured at 10 mins interval relative to blood pressure obtained at preinjection; assay type: functional, Artery
[8] = test system: Rattus norvegicus; assay: Antihypertensive activity in conscious SHR rat assessed as maximal change in tail arterial blood pressure at 15 mg/kg, iv measured at 10 mins interval relative to blood pressure obtained at preinjection; assay type: functional, Artery
[9] = test system: Rattus norvegicus; assay: Induction of […] activity in conscious normotensive WKY rat assessed as maximal change in tail arterial blood pressure at 15 mg/kg, iv measured at 10 mins interval relative to blood pressure obtained at preinjection; assay type: functional, organism-based; set-up: dose 15 mg/kg

**Q.** O=C(OC[C@H]1O[C@@H](OC(=O)c2cc(O)c(O)c(O)c2)[C@H](OC(=O)c2cc(O)c(O)c(O)c2)[C@@H](OC(=O)c2cc(O)c(O)c(O)c2)[C@@H]1O)c1cc(O)c(O)c(O)c1 was tested. Which Activity [1] did it give?
**A.** 2.3 mmHg

**Q.** With O=C1O[C@@H]2[C@@H](OC(=O)c3cc(O)c(O)c(O)c3-c3c1cc(O)c(O)c3O)[C@H](O)[C@@H](CO)O[C@H]2O as the compound, how does the Activity [1] read?
**A.** -5.5 mmHg

**Q.** O=C(OC[C@H]1O[C@@H](O)[C@H](OC(=O)c2cc(O)c(O)c(O)c2)[C@@H](OC(=O)c2cc(O)c(O)c(O)c2)[C@@H]1OC(=O)c1cc(O)c(O)c(O)c1)c1cc(O)c(O)c(O)c1 was tested. Which Activity [1] did it give?
**A.** -5.2 mmHg

**Q.** How did the Activity [1] turn out when O=C(O[C@@H]1[C@@H](OC(=O)c2cc(O)c(O)c(O)c2)[C@H](O)[C@@H](CO)O[C@H]1O)c1cc(O)c(O)c(O)c1 was run?
**A.** 4.52 mmHg

**Q.** Which Activity [2] does the source give for O=C1OC[C@H]2OC(=O)c3cc(O)c(O)c(O)c3-c3c(O)c(O)c(O)c4c3C(=O)O[C@H]([C@H]3OC(=O)c5c-4c(O)c(O)c(O)c5[C@H]3O)[C@@H]2OC(=O)c2cc(O)c(O)c(O)c2-c2c1cc(O)c(O)c2O [CASTALAGIN] here?
**A.** Dose-dependent effect

**Q.** What about the ED50 [2] of the same compound?
**A.** 6.3 mg/kg

**Q.** What about the Activity [3] of the same compound?
**A.** -49.6 mmHg

**Q.** What about the Activity [4] of the same compound?
**A.** Active

**Q.** What about the ED50 [5] of the same compound?
**A.** 6.4 mg/kg

**Q.** What about the Activity [6] of the same compound?
**A.** Active

**Q.** How did the Activity [1] turn out when O=C(O)C[C@@H]1C(=O)O[C@H]2[C@@H]3OC(=O)c4cc(O)c(O)c(O)c4-c4c(cc(O)c(O)c4O)C(=O)OC[C@H]2O[C@@H](OC(=O)c2cc(O)c(O)c(O)c2)[C@@H]3OC(=O)c2cc(O)c(O)c3c2[C@H]1[C@H](O)C(=O)O3 [CHEBULAGIC ACID] was run?
**A.** -6.5 mmHg

**Q.** Which Activity [2] does the source give for O=C(O)C[C@H]1C(=O)O[C@H]2[C@H](OC(=O)c3cc(O)c(O)c(O)c3)[C@@H](OC(=O)c3cc(O)c(O)c4c3[C@H]1[C@H](O)C(=O)O4)[C@H](OC(=O)c1cc(O)c(O)c(O)c1)O[C@@H]2COC(=O)c1cc(O)c(O)c(O)c1 [CHEBULINIC ACID] here?
**A.** Dose-dependent effect

**Q.** What about the ED50 [2] of the same compound?
**A.** 3.2 mg/kg

**Q.** What about the Activity [7] of the same compound?
**A.** -76.9 mmHg

**Q.** And the Activity [4]?
**A.** Active

**Q.** What about the ED50 [5] of the same compound?
**A.** 3.4 mg/kg

**Q.** What about the Activity [6] of the same compound?
**A.** Active

**Q.** What does the source list for O=C(O[C@@H]1O[C@@H]2COC(=O)c3cc(O)c(O)c(O)c3-c3c(cc(O)c(O)c3O)C(=O)O[C@H]([C@H]1O)[C@@H]2O)c1cc(O)c(O)c(O)c1 [CORILAGIN]?
**A.** Activity [2]: Dose-dependent effect; ED50 [2]: 6.7 mg/kg; Activity [3]: -52.6 mmHg; Activity [4]: Active; ED50 [5]: 6.5 mg/kg; Activity [6]: Active

**Q.** With O=C(OC[C@H]1O[C@@H](OC(=O)c2cc(O)c(O)c(O)c2)[C@H](OC(=O)c2cc(O)c(O)c(O)c2)[C@@H](OC(=O)c2cc(O)c(O)c(O)c2)[C@@H]1OC(=O)c1cc(O)c(O)c(O)c1)c1cc(O)c(O)c(O)c1 [PENTAGALLOYL GLUCOSE] as the compound, how does the Activity [1] read?
**A.** -7.1 mmHg

**Q.** What does the source list for O=C1O[C@@H]2[C@@H](OC(=O)c3cc(O)c(O)c(O)c3-c3c1cc(O)c(O)c3O)[C@H](O)O[C@@H]1COC(=O)c3cc(O)c(O)c(O)c3-c3c(O)c(O)c4oc(=O)c5c(c(O)c(O)c6oc(=O)c3c4c65)-c3c(cc(O)c(O)c3O)C(=O)O[C@@H]21 [PUNICALAGIN]?
**A.** ED50 [2]: 5.4 mg/kg; Activity [8]: -63.4 mmHg; Activity [9]: Active
